Measured values taken from patent US8063051B2, “9-substituted-8-oxo-adenine compounds as toll-like receptor (TLR7) modulators” (AstraZeneca AB, priority 2007, dated 2011).

biological target: T1, Recombinant human TLR7 (Homo sapiens, UniProt Q9NYK1); experiment: Human TLR7 assay (SEAP reporter in HEK293 cells); format: cell-based; conditions: HEK293 cell line stably expressing human TLR7 and pNiFty2-SEAP reporter; SEAP induction after overnight incubation at 37° C., 0.1% (v/v) DMSO
T1 construct: expressed in transfected cells; host or cells: HEK293 cell line stably expressing the pNiFty2-SEAP reporter plasmid; TLR7 in vector pUNO, blasticidin selection
T1 sequence (Q9NYK1 27-1049): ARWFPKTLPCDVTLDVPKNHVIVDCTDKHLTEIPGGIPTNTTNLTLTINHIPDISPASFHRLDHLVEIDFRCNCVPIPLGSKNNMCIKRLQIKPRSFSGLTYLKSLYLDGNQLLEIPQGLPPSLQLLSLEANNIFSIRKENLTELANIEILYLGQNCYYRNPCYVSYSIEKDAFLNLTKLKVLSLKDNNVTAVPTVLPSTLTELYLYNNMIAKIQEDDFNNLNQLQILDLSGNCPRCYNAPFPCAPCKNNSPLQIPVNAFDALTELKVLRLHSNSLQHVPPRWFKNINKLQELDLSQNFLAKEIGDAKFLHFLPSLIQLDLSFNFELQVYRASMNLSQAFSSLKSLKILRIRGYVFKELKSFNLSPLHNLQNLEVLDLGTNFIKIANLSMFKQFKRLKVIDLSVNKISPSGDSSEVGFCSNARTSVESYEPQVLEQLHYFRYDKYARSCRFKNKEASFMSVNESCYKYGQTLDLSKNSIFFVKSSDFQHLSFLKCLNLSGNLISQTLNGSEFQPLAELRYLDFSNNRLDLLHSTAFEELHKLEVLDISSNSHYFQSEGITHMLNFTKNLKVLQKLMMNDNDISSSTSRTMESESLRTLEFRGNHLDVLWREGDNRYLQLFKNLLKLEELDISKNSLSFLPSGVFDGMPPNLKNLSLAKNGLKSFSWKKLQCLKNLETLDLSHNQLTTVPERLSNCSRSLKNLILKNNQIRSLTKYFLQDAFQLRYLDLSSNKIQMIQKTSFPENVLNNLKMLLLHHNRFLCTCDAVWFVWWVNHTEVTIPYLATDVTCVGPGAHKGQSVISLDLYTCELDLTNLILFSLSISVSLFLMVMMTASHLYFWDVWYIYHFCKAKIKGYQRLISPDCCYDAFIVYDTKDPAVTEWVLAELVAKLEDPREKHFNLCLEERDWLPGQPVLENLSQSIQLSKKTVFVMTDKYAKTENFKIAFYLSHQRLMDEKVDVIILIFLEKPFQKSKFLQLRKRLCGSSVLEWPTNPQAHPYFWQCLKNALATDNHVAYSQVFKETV
Description: Recombinant human TLR7 was stably expressed in a HEK293 cell line already stably expressing the pNiFty2-SEAP reporter plasmid; integration of the reporter gene was maintained by selection with the antibiotic zeocin. The most common variant sequence of human TLR7 (represented by the EMBL sequence AF240467) was cloned into the mammalian cell expression vector pUNO and transfected into this reporter cell-line. Transfectants with stable expression were selected using the antibiotic blasticidin. In this reporter cell-line, expression of secreted alkaline phosphatase (SEAP) is controlled by an NFkB/ELAM-1 composite promoter comprising five NFkB sites combined with the proximal ELAM-1 promoter. TLR signaling leads to the translocation of NFkB and activation of the promoter results in expression of the SEAP gene. TLR7-specific activation was assessed by determining the level of SEAP produced following overnight incubation of the cells at 37° C. with the standard compound in the presence of 0.1% (v/v) dimethylsulfoxide (DMSO). Concentration dependent induction of SEAP production by compounds was expressed as the concentration of compound which produced half of the maximal level of SEAP induction for that compound (pEC50).

Going from `CCCCOc1nc(N)c2[nH]c(=O)n(CCCN(Cc3ccccc3)C(=O)CCN(C)C)c2n1` [Example 10, N-[3-(6-Amino-2-butoxy-8-oxo-7,8-dihydro-9H-purin-9-yl)propyl]-N-benzyl-N^3,N^3-dimethyl-β-alaninamide] to `CCCCOc1nc(N)c2[nH]c(=O)n(CCCN(Cc3ccccc3)C(=O)CCC(=O)N(C)C)c2n1` [Example 5, N-[3-(6-Amino-2-butoxy-8-oxo-7,8-dihydro-9H-purin-9-yl)propyl]-N-benzyl-N′,N′-dimethylsuccinamide], the EC50 rises from 31.6 nM to 79.4 nM (2.5-fold).

First: CCCCOc1nc(N)c2[nH]c(=O)n(CCCN(Cc3ccccc3)C(=O)CCOC)c2n1 [Example 4, N-[3-(6-Amino-2-butoxy-8-oxo-7,8-dihydro-9H-purin-9-yl)propyl]-N-benzyl-3-methoxypropanamide]
Second: CCCCOc1nc(N)c2[nH]c(=O)n(CCCN(Cc3ccccc3)C(=O)COC)c2n1 [Example 2, N-[3-(6-Amino-2-butoxy-8-oxo-7,8-dihydro-9H-purin-9-yl)propyl]-N-benzyl-2-methoxyacetamide]
The EC50 of the first is 1.6-fold higher: 79.4 nM for the first, 50.1 nM for the second.

First: CCCCOc1nc(N)c2[nH]c(=O)n(CCCN(Cc3ccccc3)C(C)=O)c2n1 [Example 1, N-[3-(6-Amino-2-butoxy-8-oxo-7,8-dihydro-9H-purin-9-yl)propyl]-N-benzylacetamide]
Second: CCCCOc1nc(N)c2[nH]c(=O)n(CCCN(Cc3ccccc3)C(=O)CCC(=O)OC)c2n1 [Example 3, Methyl 4-[[3-(6-amino-2-butoxy-8-oxo-7,8-dihydro-9H-purin-9-yl)propyl](benzyl)amino]-4-oxobutanoate]
The EC50 of the first is 1.6-fold higher: 63.1 nM for the first, 39.8 nM for the second.

Going from `CCCCOc1nc(N)c2[nH]c(=O)n(CCCN(Cc3ccccc3)C(=O)Cn3nc(C)nc3C)c2n1` [Example 8, N-[3-(6-Amino-2-butoxy-8-oxo-7,8-dihydro-9H-purin-9-yl)propyl]-N-benzyl-2-(3,5-dimethyl-1H-1,2,4-triazol-1-yl)acetamide] to `CCCCOc1nc(N)c2[nH]c(=O)n(CCCN(Cc3ccccc3)C(=O)CCc3cnccn3)c2n1` [Example 9, N-[3-(6-Amino-2-butoxy-8-oxo-7,8-dihydro-9H-purin-9-yl)propyl]-N-benzyl-3-pyrazin-2-ylpropanamide], the EC50 falls from 158 nM to 50.1 nM (3.2-fold). The second is the more potent here.

Going from `CCCCOc1nc(N)c2[nH]c(=O)n(CCCN(Cc3ccccc3)C(=O)Cc3ccc(S(C)(=O)=O)cc3)c2n1` [Example 6, N-[3-(6-Amino-2-butoxy-8-oxo-7,8-dihydro-9H-purin-9-yl)propyl]-N-benzyl-2-[4-(methylsulfonyl)phenyl]acetamide] to `CCCCOc1nc(N)c2[nH]c(=O)n(CCCN(Cc3ccccc3)C(=O)CN3CCN(Cc4ccccc4)CC3)c2n1` [Example 7, N-[3-(6-Amino-2-butoxy-8-oxo-7,8-dihydro-9H-purin-9-yl)propyl]-N-benzyl-2-(4-benzylpiperazin-1-yl)acetamide], the EC50 falls from 79.4 nM to 7.94 nM (10-fold).
